Tests used:
[1] = Solubility of bridged metallocene compound in n-hexane at 25° C.; details: nitrogen atmosphere, 10 mg of catalyst
[2] = Propylene polymerization with catalyst solution (polymerization activity)
Procedure: An autoclave made of SUS and having an inner volume of 15 mL was thoroughly purged with nitrogen, and 0.4 mL (0.05 M, 20 μmol) of triisobutylaluminum and 2.7 mL of a solvent which served as a polymerization solvent and in which cyclohexane and hexane had been mixed with each other at a mixing ratio of cyclohexane:hexane=9:1 (volume ratio) were put into the autoclave. The content was stirred at 600-times rotation per minute. […]
Under a nitrogen atmosphere, 2.5 mg (molecular weight: 835.07 g/mol) of the catalyst (a) which served as a bridged metallocene compound was put into a Schlenk flask and dissolved in 5.5 mL of hexane. Then, 0.36 mL of a suspension of modified methylaluminoxane (n-hexane solvent, 4.15 M and 1.49 mmol on an aluminum atom basis) was added thereto at room temperature under stirring to prepare a catalyst solution in which the concentration of the catalyst (a) was 0.00051 M.
The catalyst solution was held at room temperature under a nitrogen atmosphere for 30 minutes, 0.2 mL (0.00051 M, 0.10 μmol) of the catalyst solution and 0.7 mL of a solvent which served as a polymerization solvent and in which cyclohexane and hexane had been mixed with each other at a mixing ratio of cyclohexane:hexane=9:1 (volume ratio) were subsequently put into the autoclave, and then the temperature was increased to 65° C. to initiate polymerization. […]

With `CC(C)(C)c1cc2c3cc(C(C)(C)C)c(-c4ccccc4)cc3[c-](C(Cc3ccccc3)(Cc3ccccc3)[c-]3cccc3)c2cc1-c1ccccc1.[Cl-].[Cl-].[Zr+4]` [catalyst (h), Dibenzylmethylene(cyclopentadienyl)(2,7-diphenyl-3,6-di-tert-butylfluorenyl)zirconium Dichloride, reference compound] the “solubility determined from the amount of n-hexane necessary for the dissolution” value (shortened to “solubility determined from the amount”) [1] was “not more than 0.278 mmol/L”.

For “Benzyl(p-chlorophenyl)methylene(cyclopentadienyl)(2,7-di-p-chlorophenyl-3,6-di-tert-butylfluorenyl)zirconium Dichloride [catalyst (d)]”, the “solubility determined from the amount” value [1] was 901 µM.

For “Benzyl(p-chlorophenyl)methylene(cyclopentadienyl)(2,7-diphenyl-3,6-di-tert-butylfluorenyl)zirconium Dichloride [catalyst (c)]”, the “solubility determined from the amount” value [1] was 1585 µM.

For “Benzyl(phenyl)methylene(cyclopentadienyl)(2,7-di-p-chlorophenyl-3,6-di tert-butylfluorenyl)zirconium Dichloride [catalyst (b)]”, the “solubility determined from the amount” value [1] was 4098 µM.

With “Benzyl(phenyl)methylene(cyclopentadienyl)(2,7-diphenyl-3,6-di-tert-butylfluorenyl)zirconium Dichloride [catalyst (a)]” the “solubility determined from the amount” value [1] was 1005 µM and the polymerization activity ([2]; Example 1: propylene 7 bar, 9 minutes, catalyst solution 0.00051 M held 30 minutes, modified methylaluminoxane) was 39.90 kg-PP/mmol-Zr·hr.

For “Diphenylmethylene(cyclopentadienyl)(2,7-diphenyl-3,6-di-tert-butylfluorenyl)zirconium Dichloride [catalyst (g), reference compound]”, the “solubility determined from the amount” value [1] was “not more than 0.211 mmol/L” and the polymerization activity ([2]; Comparative Example 1: propylene 7 bar, 10 minutes, supernatant catalyst solution held 30 minutes, assuming catalyst concentration 0.00050 M) was 3.00 kg-PP/mmol-Zr·hr.

In the case of “Methyl(p-tolyl)methylene(cyclopentadienyl)(2,7-diphenyl-3,6-di-tert-butylfluorenyl)zirconium Dichloride [catalyst (e)]”, the “solubility determined from the amount” value [1] is reported as 6221 µM.

In the case of “n-octyl(phenyl)methylene(cyclopentadienyl)(2,7-diphenyl-3,6-di-tert-butylfluorenyl)zirconium Dichloride [catalyst (f)]”, the “solubility determined from the amount” value [1] is reported as 7683 µM.
